System: 616215-338-R-J1-PDC complex spheroid viability
Assay: Anticancer human tumor 616215-338-R-J1-PDC patient-derived colon adenocarcinoma cell line growth inhibition [RAS]
Details: for IC50: curve of first compound; for viability, T/C: stronger effect = lower value
In short: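 Multi-cell-type spheroids: tumor cells plus HUVEC endothelial cells and mesenchymal stem cells. RAS-pathway inhibitors were combined with targeted agents, each dosed in half-log steps down from clinical Cmax, or from 10 microM when Cmax was unknown.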

[1] = second compound 0.000949 µM, first compound 0.000949 µM
[2] = second compound 0.000949 µM, first compound 0.003 µM
[3] = second compound 0.000949 µM, first compound 0.00949 µM
[4] = second compound 0.000949 µM, first compound 0.03 µM
[5] = second compound 0.000949 µM, first compound 0.0949 µM
[6] = second compound 0.000949 µM, first compound 0.3 µM
[7] = second compound 0.003 µM, first compound 0.000949 µM
[8] = second compound 0.003 µM, first compound 0.003 µM
[9] = second compound 0.003 µM, first compound 0.00949 µM
[10] = second compound 0.003 µM, first compound 0.03 µM
[11] = second compound 0.003 µM, first compound 0.0949 µM
[12] = second compound 0.003 µM, first compound 0.3 µM
[13] = second compound 0.00949 µM, first compound 0.000949 µM
[14] = second compound 0.00949 µM, first compound 0.003 µM
[15] = second compound 0.00949 µM, first compound 0.00949 µM
[16] = second compound 0.00949 µM, first compound 0.03 µM
[17] = second compound 0.00949 µM, first compound 0.0949 µM
[18] = second compound 0.00949 µM, first compound 0.3 µM
[19] = second compound 0.03 µM, first compound 0.000949 µM
[20] = second compound 0.03 µM, first compound 0.003 µM
[21] = second compound 0.03 µM, first compound 0.00949 µM
[22] = second compound 0.03 µM, first compound 0.03 µM
[23] = second compound 0.03 µM, first compound 0.0949 µM
[24] = second compound 0.03 µM, first compound 0.3 µM
[25] = second compound 0.0949 µM, first compound 0.000949 µM
[26] = second compound 0.0949 µM, first compound 0.003 µM
[27] = second compound 0.0949 µM, first compound 0.00949 µM
[28] = second compound 0.0949 µM, first compound 0.03 µM
[29] = second compound 0.0949 µM, first compound 0.0949 µM
[30] = second compound 0.0949 µM, first compound 0.3 µM
[31] = second compound 0.3 µM, first compound 0.000949 µM
[32] = second compound 0.3 µM, first compound 0.003 µM
[33] = second compound 0.3 µM, first compound 0.00949 µM
[34] = second compound 0.3 µM, first compound 0.03 µM
[35] = second compound 0.3 µM, first compound 0.0949 µM
[36] = second compound 0.3 µM, first compound 0.3 µM
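Further: spheroids exposed to agents for seven days before viability readout.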
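Wherever viability, T/C is given: 100% = DMSO vehicle control viability.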

Compound `CC1(C)CCC(Nc2ncc(C(F)(F)F)c(-c3c[nH]c4c(P(C)(C)=O)c(C#N)ccc34)n2)CN1` (stereo unspecified) + CCn1c(-c2cccnc2C(C)OC)c2c3cc(ccc31)N1CCOC(CC(NC(=O)C(C(C)C)N(C)C(=O)C3(F)CCN(C(=O)C#CC(C)(C)N(C)C)CC3)C(=O)N3CCCC(N3)C(=O)OCC(C)(C)C2)C1 has an IC50 (second compound 0.000949 µM) of 15.8 nM, an IC50 (second compound 0.003 µM) of 15.3 nM and an IC50 (second compound 0.00949 µM) of 13.9 nM. For the same compound, the IC50 (second compound 0.03 µM) was 13.3 nM, the IC50 (second compound 0.0949 µM) was 9.25 nM and the IC50 (second compound 0.3 µM) was 8.41 nM. For the same compound, the viability, T/C [1] was 108%, the viability, T/C [2] was 107% and the viability, T/C [3] was 62.8%. The viability, T/C [4] was 34.2%, the viability, T/C [5] was 33.9% and the viability, T/C [6] was 31.9%. For the same compound, the viability, T/C [7] was 107%, the viability, T/C [8] was 111% and the viability, T/C [9] was 60.2%. It also gave a viability, T/C [10] of 39.3%, a viability, T/C [11] of 32.2% and a viability, T/C [12] of 35.2%. The viability, T/C [13] was 113%, the viability, T/C [14] was 103% and the viability, T/C [15] was 57%. It also gave a viability, T/C [16] of 35.7%, a viability, T/C [17] of 32.9% and a viability, T/C [18] of 36.5%. It also gave a viability, T/C [19] of 115%, a viability, T/C [20] of 117% and a viability, T/C [21] of 57%. For the same compound, the viability, T/C [22] was 34.6%, the viability, T/C [23] was 32.9% and the viability, T/C [24] was 32.4%. For the same compound, the viability, T/C [25] was 119%, the viability, T/C [26] was 93% and the viability, T/C [27] was 50.3%. The viability, T/C [28] was 27.6%, the viability, T/C [29] was 31.2% and the viability, T/C [30] was 27.1%. The viability, T/C [31] was 95.1%, the viability, T/C [32] was 95.3% and the viability, T/C [33] was 44.8%. It also gave a viability, T/C [34] of 28.8%, a viability, T/C [35] of 28.4% and a viability, T/C [36] of 34.6%.

`C=CC(=O)Nc1cc(Nc2nccc(-c3cn(C)c4ccccc34)n2)c(OC)cc1N(C)CCN(C)C` + C#Cc1c(F)ccc2cc(O)cc(-c3ncc4c(N5CC6CCC(C5)N6)nc(OCC56CCCN5CC(F)C6)nc4c3F)c12 showed an IC50 (second compound 0.0316 µM) greater than 1000 nM, an IC50 (second compound 0.1 µM) greater than 1000 nM and an IC50 (second compound 0.316 µM) of 846 nM. It also gave an IC50 (second compound 1 µM) of 587 nM, an IC50 (second compound 3.16 µM) of 150 nM and an IC50 (second compound 10 µM) of 150 nM. It also gave a viability, T/C (second compound 0.0316 µM, first compound 0.00316 µM) of 101%, a viability, T/C (second compound 0.0316 µM, first compound 0.01 µM) of 109% and a viability, T/C (second compound 0.0316 µM, first compound 0.0316 µM) of 101%. For the same compound, the viability, T/C (second compound 0.0316 µM, first compound 0.1 µM) was 106%, the viability, T/C (second compound 0.0316 µM, first compound 0.316 µM) was 98.1% and the viability, T/C (second compound 0.0316 µM, first compound 1 µM) was 68.4%. The viability, T/C (second compound 0.1 µM, first compound 0.00316 µM) was 106%, the viability, T/C (second compound 0.1 µM, first compound 0.01 µM) was 108% and the viability, T/C (second compound 0.1 µM, first compound 0.0316 µM) was 104%. For the same compound, the viability, T/C (second compound 0.1 µM, first compound 0.1 µM) was 110%, the viability, T/C (second compound 0.1 µM, first compound 0.316 µM) was 115% and the viability, T/C (second compound 0.1 µM, first compound 1 µM) was 74.5%. The viability, T/C (second compound 0.316 µM, first compound 0.00316 µM) was 114%, the viability, T/C (second compound 0.316 µM, first compound 0.01 µM) was 110% and the viability, T/C (second compound 0.316 µM, first compound 0.0316 µM) was 109%. For the same compound, the viability, T/C (second compound 0.316 µM, first compound 0.1 µM) was 109%, the viability, T/C (second compound 0.316 µM, first compound 0.316 µM) was 93.2% and the viability, T/C (second compound 0.316 µM, first compound 1 µM) was 42.7%. The viability, T/C (second compound 1 µM, first compound 0.00316 µM) was 112%, the viability, T/C (second compound 1 µM, first compound 0.01 µM) was 109% and the viability, T/C (second compound 1 µM, first compound 0.0316 µM) was 117%. It also gave a viability, T/C (second compound 1 µM, first compound 0.1 µM) of 82.4%, a viability, T/C (second compound 1 µM, first compound 0.316 µM) of 75.5% and a viability, T/C (second compound 1 µM, first compound 1 µM) of 31.4%. It also gave a viability, T/C (second compound 3.16 µM, first compound 0.00316 µM) of 104%, a viability, T/C (second compound 3.16 µM, first compound 0.01 µM) of 124% and a viability, T/C (second compound 3.16 µM, first compound 0.0316 µM) of 79.8%. For the same compound, the viability, T/C (second compound 3.16 µM, first compound 0.1 µM) was 59.6%, the viability, T/C (second compound 3.16 µM, first compound 0.316 µM) was 42.2% and the viability, T/C (second compound 3.16 µM, first compound 1 µM) was 35.9%. For the same compound, the viability, T/C (second compound 10 µM, first compound 0.00316 µM) was 67.2%, the viability, T/C (second compound 10 µM, first compound 0.01 µM) was 71.2% and the viability, T/C (second compound 10 µM, first compound 0.0316 µM) was 62.2%. The viability, T/C (second compound 10 µM, first compound 0.1 µM) was 56.5%, the viability, T/C (second compound 10 µM, first compound 0.316 µM) was 39.4% and the viability, T/C (second compound 10 µM, first compound 1 µM) was 21.7%.

In the case of `CCc1c2c(nc3ccc(O)cc13)-c1cc3c(c(=O)n1C2)COC(=O)[C@]3(O)CC` + CCn1c(-c2cc(N3CCN(C)CC3)cnc2C(C)OC)c2c3cc(ccc31)-c1csc(n1)CC(NC(=O)C1CC1C)C(=O)N1CCCC(N1)C(=O)OCC(C)(C)C2, the IC50 (second compound 0.000949 µM) is reported as 12.4 nM, the IC50 (second compound 0.003 µM) is reported as 6.6 nM and the IC50 (second compound 0.00949 µM) is reported as 3.33 nM. For the same compound, the IC50 (second compound 0.03 µM) was less than 0.949 nM, the IC50 (second compound 0.0949 µM) was less than 0.949 nM and the IC50 (second compound 0.3 µM) was less than 0.949 nM. It also gave a viability, T/C [1] of 109%, a viability, T/C [2] of 104% and a viability, T/C [3] of 51.5%. It also gave a viability, T/C [4] of 35.6%, a viability, T/C [5] of 21.2% and a viability, T/C [6] of 13.4%. For the same compound, the viability, T/C [7] was 109%, the viability, T/C [8] was 94.8% and the viability, T/C [9] was 29.1%. It also gave a viability, T/C [10] of 23.5%, a viability, T/C [11] of 21.3% and a viability, T/C [12] of 12.1%. For the same compound, the viability, T/C [13] was 87.6%, the viability, T/C [14] was 52.9% and the viability, T/C [15] was 21%. The viability, T/C [16] was 22.7%, the viability, T/C [17] was 18.4% and the viability, T/C [18] was 12.2%. It also gave a viability, T/C [19] of 45.2%, a viability, T/C [20] of 29.1% and a viability, T/C [21] of 23.2%. It also gave a viability, T/C [22] of 19.6%, a viability, T/C [23] of 15.2% and a viability, T/C [24] of 8.75%. The viability, T/C [25] was 36.2%, the viability, T/C [26] was 28.7% and the viability, T/C [27] was 18.1%. The viability, T/C [28] was 17.6%, the viability, T/C [29] was 14.6% and the viability, T/C [30] was 9.71%. It also gave a viability, T/C [31] of 35.1%, a viability, T/C [32] of 29.8% and a viability, T/C [33] of 24%. It also gave a viability, T/C [34] of 23.1%, a viability, T/C [35] of 17.5% and a viability, T/C [36] of 10.5%.
